Reference: EPA's ToxRefDB 2

Columns and labels:
rat [1] = details: Fertility (Segment I); sprague dawley; Oral; Gavage/Intubation; dose end: 7 GD; group: parental; systemic / in life observation / body weight / body weight gain + systemic / in life observation / clinical signs / motor activity + …
rabbit [2] = details: Prenatal developmental toxicity study, himalayan, Oral, Gavage/Intubation, dose end: 19 GD
dog [3] = details: Chronic toxicity, beagle, Oral, Gavage/Intubation, dose end: 1 year, group: systemic
rat [4] = details: Prenatal developmental toxicity study, sprague dawley, Oral, Gavage/Intubation, dose end: 17 GD
rat [5] = details: Prenatal developmental toxicity study, sprague dawley, Oral, Gavage/Intubation, dose end: 17 GD; remark: listed apart in the source
rat [6] = details: Sub-acute repeat dose toxicity; sprague dawley; Oral; Gavage/Intubation; dose end: 28 day; group: systemic; systemic / in life observation / body weight / body weight gain + systemic / in life observation / clinical signs / alopecia + systemic / in…
rabbit [7] = details: Prenatal developmental toxicity study, himalayan, Oral, Gavage/Intubation, dose end: 19 GD; remark: listed apart in the source
dog [8] = details: Sub-acute repeat dose toxicity, beagle, Oral, Capsule, dose end: 4 week, group: systemic
rat [9] = details: Chronic toxicity, sprague dawley, Oral, Gavage/Intubation, dose end: 6 month, group: systemic
dog [10] = details: Chronic toxicity, beagle, Oral, Gavage/Intubation, dose end: 6 month, group: systemic
[11] = group: developmental, systemic / in life observation / body weight / fetal weight
[12] = group: maternal, systemic / in life observation / body weight / body weight + systemic / in life observation / body weight / body weight gain + systemic / in…
[13] = systemic / in life observation / body weight / body weight gain + systemic / pathology microscopic / eye / opacity
[14] = systemic / in life observation / clinical signs / convulsions + systemic / in life observation / clinical signs / general pallor + systemic…
[15] = group: maternal, reproductive / reproductive performance / postimplantation loss / postimplantation loss + reproductive / reproductive performance / …
[16] = group: developmental, developmental / developmental malformation / bone / [other] + developmental / developmental malformation / bone / absent + developmental / …
[17] = group: maternal, systemic / in life observation / body weight / body weight gain + systemic / in life observation / food consumption / food consumption + …
[18] = group: maternal, systemic / in life observation / food consumption / food consumption
[19] = group: maternal, systemic / in life observation / food consumption / food consumption + systemic / in life observation / body weight / body weight + systemic…
[20] = systemic / in life observation / body weight / body weight gain + systemic / in life observation / food consumption / food consumption + …
[21] = systemic / pathology microscopic / larynx / inflammation
[22] = systemic / in life observation / clinical signs / convulsions + systemic / in life observation / mortality / mortality + systemic / …
[23] = systemic / pathology microscopic / adrenal gland / dilatation + systemic / pathology microscopic / thyroid gland / hyperplasia + systemic / …
[24] = systemic / in life observation / body weight / body weight gain + systemic / in life observation / clinical signs / vomitting
[25] = systemic / in life observation / body weight / body weight gain + systemic / in life observation / clinical signs / vomitting + systemic / …

O=C(Oc1ccc(Br)cc1)N1CCN2CCC1CC2
LEL (rat [1]): 50 mg/kg/day
LOAEL (rat [1]): 50 mg/kg/day
NEL (rat [1]): 20 mg/kg/day
NOAEL (rat [1]): 20 mg/kg/day
LEL (rabbit [2]; [11]): 30 mg/kg/day
LOAEL (rabbit [2]; [11]): > 30 mg/kg/day
NEL (rabbit [2]; [11]): 10 mg/kg/day
NOAEL (rabbit [2]; [11]): ≥ 30 mg/kg/day
LEL (rabbit [2]; [12]): 10 mg/kg/day
LOAEL (rabbit [2]; [12]): > 30 mg/kg/day
NEL (rabbit [2]; [12]): 3 mg/kg/day
NOAEL (rabbit [2]; [12]): ≥ 30 mg/kg/day
LEL (dog [3]; [13]): 5 mg/kg/day
NEL (dog [3]; [13]): < 5 mg/kg/day
LOAEL (dog [3]; [14]): > 12.5 mg/kg/day
NOAEL (dog [3]; [14]): ≥ 12.5 mg/kg/day
LEL (rat [4]; [11]): 75 mg/kg/day
LOAEL (rat [4]; [11]): > 75 mg/kg/day
NEL (rat [4]; [11]): 25 mg/kg/day
NOAEL (rat [4]; [11]): ≥ 75 mg/kg/day
LOAEL (rat [4]; [15]): > 75 mg/kg/day
NEL (rat [4]; [15]): 5 mg/kg/day
NOAEL (rat [4]; [15]): ≥ 75 mg/kg/day
LEL (rat [4]; group: maternal, reproductive / reproductive performance / preimplantation loss / preimplantation loss + systemic / in life observation / body weight / body …): 25 mg/kg/day
LOAEL (rat [5]; [16]): 50 mg/kg/day
NEL (rat [5]; [16]): 5 mg/kg/day
NOAEL (rat [5]; [16]): 20 mg/kg/day
LEL (rat [5]; group: developmental, developmental / developmental malformation / bone / incomplete ossification): 20 mg/kg/day
LOAEL (rat [5]; [17]): 50 mg/kg/day
NEL (rat [5]; [17]): 5 mg/kg/day
NOAEL (rat [5]; [17]): 20 mg/kg/day
LEL (rat [5]; group: maternal, systemic / organ weight / uterus / nos): 20 mg/kg/day
LEL (rat [6]): 5 mg/kg/day
LOAEL (rat [6]): 25 mg/kg/day
NEL (rat [6]): < 5 mg/kg/day
NOAEL (rat [6]): 5 mg/kg/day
LEL (rabbit [7]; [11]): 24 mg/kg/day
LOAEL (rabbit [7]; [11]): > 24 mg/kg/day
NEL (rabbit [7]; [11]): 8 mg/kg/day
NOAEL (rabbit [7]; [11]): ≥ 24 mg/kg/day
LEL (rabbit [7]; [18]): 3 mg/kg/day
NEL (rabbit [7]; [18]): < 3 mg/kg/day
LOAEL (rabbit [7]; [19]): > 24 mg/kg/day
NOAEL (rabbit [7]; [19]): ≥ 24 mg/kg/day
LOAEL (dog [8]; [20]): > 30 mg/kg/day
NOAEL (dog [8]; [20]): ≥ 30 mg/kg/day
LEL (dog [8]; [21]): 3 mg/kg/day
NEL (dog [8]; [21]): < 3 mg/kg/day
LOAEL (rat [9]; [22]): 75 mg/kg/day
NOAEL (rat [9]; [22]): 25 mg/kg/day
LEL (rat [9]; [23]): 5 mg/kg/day
NEL (rat [9]; [23]): < 5 mg/kg/day
LEL (dog [10]; [24]): 1.5 mg/kg/day
NEL (dog [10]; [24]): < 1.5 mg/kg/day
LOAEL (dog [10]; [25]): > 15 mg/kg/day
NOAEL (dog [10]; [25]): ≥ 15 mg/kg/day
